{
  "source": "patent US20120329770A1",
  "about": "“CEPHALOSPORIN DERIVATIVES USEFUL AS BETA-LACTAMASE INHIBITORS AND COMPOSITIONS AND METHODS OF USE THEREOF” (priority 2010, published 2012)",
  "key": {"[1]": {"biological_target": "T1, VIM-2 metallo-β-lactamase (Pseudomonas aeruginosa, UniProt Q9K2N0)", "T1 construct": "made in house; host or cells: Escherichia coli BL21 (DE3) pLysS carrying pNOR2001", "test": "Inhibition of β-lactamases, nitrocefin hydrolysis", "type": "biochemical", "settings": "nitrocefin 100 μM, 10 min pre-incubation; read-out: IC50 VIM-2 (Class B)", "procedure": "VIM-2 metallo-β-lactamase was expressed in Escherichia coli BL21 (DE3) pLysS carrying pNOR2001 (a generous gift from P. Nordmann, Université Paris XI, France) and purified as reported by Poirel et al. (Antimicrob. Agents Chemother. 2000, 44, 891-897). The homogeneity and molecular weight of the mature VIM-2 (29.7 kDa) was determined by SDS-PAGE (Laemmli, U. K. Nature 1970, 227, 680-685). Enzyme concentration was determined from the absorbance at 280 nm (εEM=32,000 M^−1 cm^−1).\n(§1) Assay conditions for IC50 determinations involved enzyme concentrations ranging between 2 and 6 nM. The concentration used for the nitrocefin substrate was 100 μM. Assays with OXA-10 and OXA-45 were conducted at pH 7.0 with 100 mM sodium phosphate buffer containing 25 mM sodium bicarbonate. Assays with KPC-2 and GC1 were performed at pH 7.0 in 50 mM HEPES buffer and assays with IMP-1 and VIM-2 were performed in the same buffer with the addition of 500 mM NaCl and 1 μM ZnSO4. BSA was used with all enzymes (except OXA-10 and KPC-2) at concentrations of 0.5-1.0 μg/mL.\n(§2) Inhibitors were pre-incubated for 10 minutes at room temperature with enzyme assay solutions prior to the addition of the nitrocefin. […] Enzymatic activity was determined using the initial rate of increase in absorbance at 482 nm"}, "[2]": {"biological_target": "T2, class D β-lactamase OXA-10 (Pseudomonas aeruginosa, UniProt P14489)", "T2 construct": "indicating a post-translational deletion of a 20 amino acid signal peptide; made in house; host or cells: Escherichia coli BL21 (DE3), pET24a-blaOXA-10, purified from culture supernatant", "T2 sequence (P14489 20-266)": "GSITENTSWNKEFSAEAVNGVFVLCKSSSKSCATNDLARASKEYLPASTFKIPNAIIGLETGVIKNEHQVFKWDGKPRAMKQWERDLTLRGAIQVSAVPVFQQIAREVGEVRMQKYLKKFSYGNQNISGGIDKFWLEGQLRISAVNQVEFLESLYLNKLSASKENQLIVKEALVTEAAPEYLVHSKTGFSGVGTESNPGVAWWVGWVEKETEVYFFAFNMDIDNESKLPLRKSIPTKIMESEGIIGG", "test": "Inhibition of β-lactamases, nitrocefin hydrolysis", "type": "biochemical", "text": "OXA-10 β-lactamase was expressed and purified using a modified protocol of that reported by Golemi et al. (J. Am. Chem. Soc. 2000, 122, 6132-6133). The pET24a plasmid with the blaOXA-10 gene insert, a kind gift from Prof. S. Mobashery (Notre Dame University), was transformed into Escherichia coli BL21 (DE3) and induced with IPTG. Purification of the enzyme was achieved by the addition of ammonium sulfate to the induced culture supernatant. The protein precipitate collected (50-70% ammonium sulfate saturation) was dissolved and dialyzed against 10 mM Tris.SO4 buffer, pH 7.5, and further purified with a DE52 cellulose column (Whatman, UK) equilibrated with the same buffer. The material bound to the column was washed with 10 mM Tris.SO4 buffer, pH 7.5, followed by an elution with a K2SO4 gradient (0-100 mM). Protein fractions containing nitrocefin-hydrolyzing activity were concentrated and purity analyzed by SDS-PAGE. A molecular weight of 27,490 Da for OXA-10 was determined by ESI MS, indicating a post-translational deletion of a 20 amino acid signal peptide.\n(§3) Assay conditions for IC50 determinations involved enzyme concentrations ranging between 2 and 6 nM. […]\nas §2"}, "[3]": {"biological_target": "T3, IMP-1 metallo-β-lactamase (Serratia marcescens, UniProt P52699)", "T3 construct": "made in house; host or cells: Escherichia coli BL21(DE3) carrying pCIP4", "T3 sequence (P52699 19-246, looked up)": "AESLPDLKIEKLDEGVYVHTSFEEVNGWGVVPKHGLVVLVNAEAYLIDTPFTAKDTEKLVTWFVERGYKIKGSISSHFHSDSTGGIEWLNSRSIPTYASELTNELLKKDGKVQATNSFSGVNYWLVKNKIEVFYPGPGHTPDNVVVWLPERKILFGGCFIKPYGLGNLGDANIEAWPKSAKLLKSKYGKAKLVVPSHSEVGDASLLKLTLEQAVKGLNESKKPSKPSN", "test": "Inhibition of β-lactamases, nitrocefin hydrolysis", "type": "biochemical", "settings": "nitrocefin 100 μM, 10 min pre-incubation; read-out: IC50 IMP-1 (Class B)", "text": "IMP-1 metallo-β-lactamase was expressed in Esherichia coli BL21(DE3) carrying pCIP4 and purified as reported by Laraki et al. (Antimicrob. Agents Chemother. 1999, 43, 902-906). The homogeneity of the protein was confirmed by SDS-PAGE according to the method of Laemmli (Nature 1970, 227, 680-685). The molecular weight of purified IMP-1, Mr=25,112±0.5 Da, as determined by ESI-MS, was in agreement with that deduced from its amino acid sequence (Laraki et al. Antimicrob. Agents Chemother. 1999, 43, 890-901).\nas §1\nInhibitors were pre-incubated for 10 minutes at room temperature with enzyme assay solutions prior to the addition of the nitrocefin. These compounds were dissolved in DMSO and prepared at various concentrations such that the final concentration of DMSO was 1% during the pre-incubation. The reaction was initiated by the addition of the pre-incubated enzyme-cyclobutanone solution (90 μL) to a solution of nitrocefin in buffer (10 μL). Enzymatic activity was determined using the initial rate of increase in absorbance at 482 nm"}, "[4]": {"biological_target": "class B β-lactamase NDM-1 (Klebsiella pneumoniae, UniProt C7C422)", "sequence (C7C422 29-270, looked up)": "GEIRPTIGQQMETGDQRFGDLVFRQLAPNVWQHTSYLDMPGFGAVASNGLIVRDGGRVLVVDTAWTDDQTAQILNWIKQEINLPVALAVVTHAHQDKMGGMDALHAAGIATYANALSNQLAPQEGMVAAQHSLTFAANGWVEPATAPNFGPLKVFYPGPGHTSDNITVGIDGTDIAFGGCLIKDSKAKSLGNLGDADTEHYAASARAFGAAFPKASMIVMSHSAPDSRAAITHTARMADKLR", "test": "Inhibition of β-lactamases, nitrocefin hydrolysis", "type": "biochemical", "settings": "15 μM nitrocefin"}, "class C β-lactamase GC1": {"biological_target": "T4, class C β-lactamase GC1 (Enterobacter cloacae, UniProt Q59401)", "T4 construct": "made in house; host or cells: Escherichia coli AS226-51 harbouring pCS100", "T4 sequence (Q59401 entry or part of it)": "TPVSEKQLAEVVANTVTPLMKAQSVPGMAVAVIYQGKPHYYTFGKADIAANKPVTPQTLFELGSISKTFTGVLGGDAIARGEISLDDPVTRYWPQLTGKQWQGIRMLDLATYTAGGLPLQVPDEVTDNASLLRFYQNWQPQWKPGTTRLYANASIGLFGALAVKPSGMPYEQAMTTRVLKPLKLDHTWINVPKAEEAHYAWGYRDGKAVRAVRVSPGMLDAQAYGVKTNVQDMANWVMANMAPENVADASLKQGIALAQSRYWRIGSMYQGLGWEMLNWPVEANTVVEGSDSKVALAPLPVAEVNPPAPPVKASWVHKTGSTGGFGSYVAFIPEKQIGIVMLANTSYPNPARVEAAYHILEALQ", "test": "Inhibition of β-lactamases, nitrocefin hydrolysis", "type": "biochemical", "settings": "nitrocefin 100 μM, 10 min pre-incubation", "procedure": "GC1 β-lactamase was purified from Escherichia coli AS226-51 harbouring pCS100, which was a generous gift from Prof. M. Nukaga (Josai International University, Japan). The cell culture was harvested and subjected to a stringent periplasmic lysis protocol according to Crichlow et al. (Biochemistry 1999, 38, 10256-10261.). Purification proceeded similarly to Nukaga et al. (J. Biol. Chem. 2004, 279, 9344-9352.) with cation exchange chromatography (CM Sephadex C-50) equilibrated with 10 mM sodium phosphate buffer (pH 6), followed by elution with a stepwise gradient of increasing NaCl concentration. Fractions containing β-lactamase activity were then applied to a phenylboronate column (MoBiTec, Germany), equilibrated with 20 mM triethanolamine.HCl, pH 7.0, 0.5 M NaCl. The column was washed with the same buffer and then eluted with sterile 0.5 M borate buffer, pH 7.0, 0.5 M NaCl. Active fractions eluted from the phenylboronate column were analyzed for purity via SDS-PAGE, pooled, and concentrated before buffer exchange to 100 mM sodium phosphate, pH 7.0.\nas §3, §2"}, "[5]": {"biological_target": "T5, class A β-lactamase KPC-2 (Klebsiella pneumoniae, UniProt Q9F663)", "T5 construct": "calculated for a mature protein with a 24 amino acid signal peptide removed; made in house; host or cells: Escherichia coli DH5α (pBR322-catI-blaKPC-2)", "T5 sequence (Q9F663 25-293, looked up)": "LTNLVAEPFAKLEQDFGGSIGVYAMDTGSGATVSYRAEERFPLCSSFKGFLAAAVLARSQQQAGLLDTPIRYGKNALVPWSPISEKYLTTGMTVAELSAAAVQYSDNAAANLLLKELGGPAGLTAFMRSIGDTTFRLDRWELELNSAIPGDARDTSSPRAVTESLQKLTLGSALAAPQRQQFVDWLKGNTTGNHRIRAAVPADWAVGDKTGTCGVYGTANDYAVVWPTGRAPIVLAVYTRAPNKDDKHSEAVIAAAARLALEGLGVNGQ", "test": "Inhibition of β-lactamases, nitrocefin hydrolysis", "type": "biochemical", "settings": "nitrocefin 100 μM, 10 min pre-incubation", "procedure": "The KPC-2 β-lactamase was purified from Escherichia coli DH5α strain containing the plasmid, pBR322-catI-blaKPC-2, which was kindly provided by Prof. F. van den Akker (Case Western Reserve University). Expression and purification of the enzyme was similar to that reported by Ke et al. (Biochemistry 2007, 46, 5732-5740). A molecular weight of 28,472 Da for the purified KPC-2 was determined by ESI MS. This is in close agreement with that calculated for a mature protein with a 24 amino acid signal peptide removed.\nas §1, §2"}, "MBL CfiA": {"biological_target": "MBL CfiA (Aeromonas hydrophila, UniProt P26918)", "sequence (P26918 28-254)": "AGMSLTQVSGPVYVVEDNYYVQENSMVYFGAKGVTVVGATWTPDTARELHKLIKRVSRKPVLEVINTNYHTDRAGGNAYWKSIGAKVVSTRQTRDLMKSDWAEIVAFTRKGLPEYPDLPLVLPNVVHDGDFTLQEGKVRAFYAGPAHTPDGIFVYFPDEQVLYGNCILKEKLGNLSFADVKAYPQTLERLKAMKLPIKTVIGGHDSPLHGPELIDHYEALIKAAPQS", "settings": "cited from earlier work"}, "IMP-1": {"biological_target": "T6, IMP-1 (Serratia marcescens, UniProt P52699)", "T6 construct": "made in house; host or cells: Escherichia coli BL21(DE3) carrying pCIP4", "T6 sequence (P52699 19-246 limits assumed)": "as the sequence (P52699 19-246, looked up) above", "test": "Inhibition of IMP-1-catalyzed hydrolysis of meropenem in vitro (310 nm)", "type": "biochemical"}},
  "data": [
    {"smiles": "O=C(Cc1ccc(F)cc1)N[C@@H]1C(=O)N2C(C(=O)O)=C(CSC(=O)c3ccccc3)CS[C@H]12", "note": "[drawing 28]", "values": [
      {"measurement": "IC50", "setting": "[1]", "result": 4.2, "unit": "µM"},
      {"measurement": "IC50", "setting": "[2]", "result": 6.3, "unit": "µM"},
      {"measurement": "IC50", "setting": "[3]", "result": 8.2, "unit": "µM"},
      {"measurement": "IC50", "setting": "[4]", "result": 40, "unit": "µM"},
      {"measurement": "IC50", "setting": "class C β-lactamase GC1", "result": 11, "unit": "µM"},
      {"measurement": "IC50", "setting": "[5]", "result": 104, "unit": "µM"}
    ]},
    {"smiles": "CO[C@@]1(NC(=O)C(C(=O)O)c2ccc(O)cc2)C(=O)N2C(C(=O)O)=C(CSc3nnnn3C)CO[C@@H]21", "note": "(stereo partly drawn) [moxalactam]", "values": [
      {"measurement": "incubation required for full inactivation of CfiA", "setting": "MBL CfiA", "result": 14, "unit": "h"},
      {"measurement": "performance as inhibitor", "setting": "IMP-1", "result": "poor performance"},
      {"measurement": "protection of meropenem from IMP-1-catalyzed hydrolysis in vitro", "setting": "IMP-1; IMP-1 12 nM, meropenem 200 μM, test substance 100 μM, 310 nm", "result": "poor protection"}
    ]}
  ]
}
